Measured values: US20070082880A1 (priority 2005, published 2007)
pIC50: −log10 of the molar value.

Biological target: T1, human PKCθ full length enzyme (Homo sapiens, UniProt Q04759)
T1 construct: human PKCθ full length enzyme (Panvera Catalog No. P2996); purchased Panvera P2996
Experiment: PKCθ IMAP Assay
Assay type: biochemical
Conditions: average value when one or more samples were tested; ATP 6 uM, PKCθ 1 nM
Method in brief: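 IMAP fluorescence polarization after 20 min with binding beads measured phosphorylation of 100 nM 5FAM-peptide. Reactions held 1 nM full-length human PKCθ, 6 uM ATP, 5% DMSO and DTT-containing buffer, 25 min at room temperature. Compounds tested as 2:1 serial dilutions; controls lacked ATP or enzyme.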

T1 sequence (Q04759 whole entry): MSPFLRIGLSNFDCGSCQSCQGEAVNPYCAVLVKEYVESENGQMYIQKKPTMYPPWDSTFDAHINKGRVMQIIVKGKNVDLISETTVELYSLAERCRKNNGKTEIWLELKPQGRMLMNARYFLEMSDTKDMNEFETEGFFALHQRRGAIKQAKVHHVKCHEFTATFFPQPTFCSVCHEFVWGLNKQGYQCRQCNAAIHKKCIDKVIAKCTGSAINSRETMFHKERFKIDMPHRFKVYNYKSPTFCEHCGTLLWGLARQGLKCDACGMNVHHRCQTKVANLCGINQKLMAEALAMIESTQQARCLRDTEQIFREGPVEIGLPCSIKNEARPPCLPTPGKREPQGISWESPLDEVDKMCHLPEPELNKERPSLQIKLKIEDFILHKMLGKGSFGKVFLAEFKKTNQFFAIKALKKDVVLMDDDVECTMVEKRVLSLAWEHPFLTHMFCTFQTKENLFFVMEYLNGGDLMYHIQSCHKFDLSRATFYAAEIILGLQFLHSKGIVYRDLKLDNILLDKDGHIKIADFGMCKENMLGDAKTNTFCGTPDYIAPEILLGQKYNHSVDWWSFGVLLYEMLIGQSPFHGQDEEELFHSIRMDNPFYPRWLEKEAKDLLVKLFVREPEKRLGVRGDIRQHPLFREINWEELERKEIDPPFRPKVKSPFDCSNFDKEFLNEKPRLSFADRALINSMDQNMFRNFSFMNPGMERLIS

Compound | pIC50
Cc1c(I)sc2ncc(C#N)c(Nc3ccc4[nH]ccc4c3)c12 [Compound 317, 4-(1H-Indol-5-ylamino)-2-iodo-3-methylthieno[2,3-b]pyridine-5-carbonitrile] | 6.14
Cc1c(Nc2c(C#N)cnc3sc(I)c(C)c23)ccc2[nH]ccc12 [Compound 318, 2-Iodo-3-methyl-4-[(4-methyl-1H-indol-5-yl)amino]thieno[2,3-b]pyridine-5-carbonitrile] | 7.10
Cc1ccc2[nH]ccc2c1Nc1c(C#N)cnc2sc(-c3ccccc3)cc12 [Compound 319, 4-[(5-methyl-1H-indol-4-yl)amino]-2-phenylthieno[2,3-b]pyridine-5-carbonitrilee] | 5.95
CN(C)Cc1cccc(-c2cc3c(Nc4cnc5[nH]ccc5c4)c(C#N)cnc3s2)c1 [Compound 320, 2-{3-[(dimethylamino)methyl]phenyl}-4-(1H-pyrrolo[2,3-b]pyridin-5-ylamino)thieno[2,3-b]pyridine-5-carbonitrile] | 6.16
CC(C)c1c(I)sc2ncc(C#N)c(Nc3ccc4[nH]ccc4c3)c12 [Compound 321, 4-(1H-indol-5-ylamino)-2-iodo-3-isopropylthieno[2,3-b]pyridine-5-carbonitrile] | 6.46
N#Cc1cnc2sc(-c3ccccc3)cc2c1Nc1cnc2[nH]ccc2c1 [Compound 322, 2-phenyl-4-(1H-pyrrolo[2,3-b]pyridin-5-ylamino)thieno[2,3-b]pyridine-5-carbonitrile] | 5.33
Cc1cc2[nH]ccc2cc1Nc1c(C#N)cnc2sc(-c3ccccc3)cc12 [Compound 323, 4-[(6-methyl-1H-indol-5-yl)amino]-2-phenylthieno[2,3-b]pyridine-5-carbonitrile] | 7.06
Cc1c(Nc2c(C#N)cnc3sc(I)c(C(C)C)c23)ccc2[nH]ccc12 [Compound 324, 2-iodo-3-isopropyl-4-[(4-methyl-1H-indol-5-yl)amino]thieno[2,3-b]pyridine-5-carbonitrile] | 7.19
Cc1c(Nc2c(C#N)cnc3scc(Br)c23)ccc2[nH]ccc12 [Compound 325, 3-bromo-4-[(4-methyl-1H-indol-5-yl)amino]thieno[2,3-b]pyridine-5-carbonitrile] | 7.82
CN(C)Cc1cccc(-c2cc3c(Nc4cccnc4)c(C#N)cnc3s2)c1 [Compound 326, 2-{3-[(dimethylamino)methyl]phenyl}-4-(pyridin-3-ylamino)thieno[2,3-b]pyridine-5-carbonitrile] | 4.51
CN(C)Cc1cccc(-c2cc3c(Nc4ccncc4)c(C#N)cnc3s2)c1 [Compound 327, 2-{3-[(dimethylamino)methyl]phenyl}-4-(pyridin-4-ylamino)thieno[2,3-b]pyridine-5-carbonitrile] | 4.79
N#Cc1cnc2sc(-c3ccc4ccccc4c3)cc2c1Nc1ccc2[nH]ccc2c1 [Compound 328, 4-(1H-indol-5-ylamino)-2-(2-naphthyl)thieno[2,3-b]pyridine-5-carbonitrile] | 5.86
Cc1c(Nc2c(C#N)cnc3sc(-c4ccc(N5CCOCC5)nc4)cc23)ccc2[nH]ccc12 [Compound 329, 4-[(4-methyl-1H-indol-5-yl)amino]-2-(6-morpholin-4-ylpyridin-3-yl)thieno[2,3-b]pyridine-5-carbonitrile] | 6.80
Cc1c(Nc2c(C#N)cnc3sc(-c4cnc(N5CCOCC5)nc4)cc23)ccc2[nH]ccc12 [Compound 330, 4-[(4-methyl-1H-indol-5-yl)amino]-2-(2-morpholin-4-ylpyrimidin-5-yl)thieno[2,3-b]pyridine-5-carbonitrile] | 7.16
Cc1c(Nc2c(C#N)cnc3sc(-c4cnc(N(C)C)nc4)cc23)ccc2[nH]ccc12 [Compound 331, 2-[2-(dimethylamino)pyrimidin-5-yl]-4-[(4-methyl-1H-indol-5-yl)amino]thieno[2,3-b]pyridine-5-carbonitrile] | < 4.60
CCOc1ccccc1-c1cc2c(Nc3ccc4[nH]ccc4c3C)c(C#N)cnc2s1 [Compound 332, 2-(2-ethoxyphenyl)-4-[(4-methyl-1H-indol-5-yl)amino]thieno[2,3-b]pyridine-5-carbonitrile] | 6.36
CCCCNC(=O)Nc1ccc(-c2cc3c(Nc4ccc5[nH]ccc5c4)c(C#N)cnc3s2)cc1 [Compound 334, N-butyl-N′-{4-[5-cyano-4-(1H-indol-5-ylamino)thieno[2,3-b]pyridin-2-yl]phenyl}urea] | < 4.90
N#Cc1cnc2sc(-c3cscc3C=O)cc2c1Nc1ccc2[nH]ccc2c1 [Compound 336, 2-(4-formyl-3-thienyl)-4-(1H-indol-5-ylamino)thieno[2,3-b]pyridine-5-carbonitrile] | 7.29
COc1ccc(-c2cc3c(Nc4ccc5[nH]ccc5c4)c(C#N)cnc3s2)cc1C=O [Compound 337, 2-(3-formyl-4-methoxyphenyl)-4-(1H-indol-5-ylamino)thieno[2,3-b]pyridine-5-carbonitrile] | 6.87
COc1ccc(C=O)cc1-c1cc2c(Nc3ccc4[nH]ccc4c3C)c(C#N)cnc2s1 [Compound 338, 2-(5-formyl-2-methoxyphenyl)-4-[(4-methyl-1H-indol-5-yl)amino]thieno[2,3-b]pyridine-5-carbonitrile] | 7.85
COC(=O)Nc1ccc(-c2cc3c(Nc4ccc5[nH]ccc5c4)c(C#N)cnc3s2)cc1 [Compound 342, methyl {4-[5-cyano-4-(1H-indol-5-ylamino)thieno[2,3-b]pyridin-2-yl]phenyl}carbamate] | 6.33
CON(C)C(=O)c1cccc(-c2cc3c(Nc4ccc5[nH]ccc5c4)c(C#N)cnc3s2)c1 [Compound 344, 3-[5-cyano-4-(1H-indol-5-ylamino)thieno[2,3-b]pyridin-2-yl]-N-methoxy-N-methylbenzamide] | 6.09
Cc1c(Nc2c(C#N)cnc3sc(-c4ccc(NCCN5CCOCC5)nc4)cc23)ccc2[nH]ccc12 [Compound 352, 4-[(4-methyl-1H-indol-5-yl)amino]-2-{6-[(2-morpholin-4-ylethyl)amino]pyridin-3-yl}thieno[2,3-b]pyridine-5-carbonitrile] | 7.64

Now from value to molecule:

pIC50 | Compound
6.21 | COC(=O)Nc1ccc(-c2cc3c(Nc4ccc5[nH]ccc5c4C)c(C#N)cnc3s2)cc1 [Compound 333, methyl (4-{5-cyano-4-[(4-methyl-1H-indol-5-yl)amino]thieno[2,3-b]pyridin-2-yl}phenyl)carbamate]
6.91 | CN(C)CCNC(=O)c1cccc(-c2cc3c(Nc4ccc5[nH]ccc5c4)c(C#N)cnc3s2)c1 [Compound 335, 3-[5-cyano-4-(1H-indol-5-ylamino)thieno[2,3-b]pyridin-2-yl]-N-[2-(dimethylamino)ethyl]benzamide]
8.05 | Cc1c(Nc2c(C#N)cnc3sc(-c4cccc(C(=O)NCCN(C)C)c4)cc23)ccc2[nH]ccc12 [Compound 339, 3-{5-cyano-4-[(4-methyl-1H-indol-5-yl)amino]thieno[2,3-b]pyridin-2-yl}-N-[2-(dimethylamino)ethyl]benzamide]
7.59 | CC(=O)c1cccc(-c2cc3c(Nc4ccc5[nH]ccc5c4C)c(C#N)cnc3s2)c1 [Compound 340, 2-(3-acetylphenyl)-4-[(4-methyl-1H-indol-5-yl)amino]thieno[2,3-b]pyridine-5-carbonitrile]
7.52 | CNS(=O)(=O)c1cccc(-c2cc3c(Nc4ccc5[nH]ccc5c4C)c(C#N)cnc3s2)c1 [Compound 343, 3-{5-cyano-4-[(4-methyl-1H-indol-5-yl)amino]thieno[2,3-b]pyridin-2-yl}-N-methylbenzenesulfonamide]
7.51 | Cc1c(Nc2c(C#N)cnc3sc(-c4ccc(S(=O)(=O)NCCN(C)C)cc4)cc23)ccc2[nH]ccc12 [Compound 345, 4-{5-cyano-4-[(4-methyl-1H-indol-5-yl)amino]thieno[2,3-b]pyridin-2-yl}-N-[2-(dimethylamino)ethyl]benzenesulfonamide]
7.32 | Cc1c(Nc2c(C#N)cnc3sc(-c4ccc(S(=O)(=O)N(C)CCN(C)C)cc4)cc23)ccc2[nH]ccc12 [Compound 346, 4-{5-cyano-4-[(4-methyl-1H-indol-5-yl)amino]thieno[2,3-b]pyridin-2-yl}-N-[2-(dimethylamino)ethyl]-N-methylbenzenesulfonamide]
7.89 | Cc1c(Nc2c(C#N)cnc3sc(-c4cccc(C(C)N(C)C)c4)cc23)ccc2[nH]ccc12 (stereo not drawn) [Compound 347, 2-{3-[1-(dimethylamino)ethyl]phenyl}-4-[(4-methyl-1H-indol-5-yl)amino]thieno[2,3-b]pyridine-5-carbonitrile]
7.74 | Cc1c(Nc2c(C#N)cnc3sc(-c4cccc(C(=O)N(C)CCN(C)C)c4)cc23)ccc2[nH]ccc12 [Compound 348, 3-{5-cyano-4-[(4-methyl-1H-indol-5-yl)amino]thieno[2,3-b]pyridin-2-yl}-N-[2-(dimethylamino)ethyl]-N-methylbenzamide]
7.80 | Cc1c(Nc2c(C#N)cnc3sc(-c4ccc(C(=O)NCCN(C)C)cc4)cc23)ccc2[nH]ccc12 [Compound 349, 4-{5-cyano-4-[(4-methyl-1H-indol-5-yl)amino]thieno[2,3-b]pyridin-2-yl}-N-[2-(dimethylamino)ethyl]benzamide]
7.47 | Cc1c(Nc2c(C#N)cnc3sc(-c4ccc(OCCCN(C)C)nc4)cc23)ccc2[nH]ccc12 [Compound 350, 2-{6-[3-(dimethylamino)propoxy]pyridin-3-yl}-4-[(4-methyl-1H-indol-5-yl)amino]thieno[2,3-b]pyridine-5-carbonitrile]
6.92 | Cc1c(Nc2c(C#N)cnc3sc(-c4ccc(OCCCl)cc4)cc23)ccc2[nH]ccc12 [Compound 351, 2-[4-(2-chloroethoxy)phenyl]-4-[(4-methyl-1H-indol-5-yl)amino]thieno[2,3-b]pyridine-5-carbonitrile]
7.44 | Cc1c(Nc2c(C#N)cnc3sc(-c4cccc(C(=O)N(C)C)c4)cc23)ccc2[nH]ccc12 [Compound 353, 3-{5-cyano-4-[(4-methyl-1H-indol-5-yl)amino]thieno[2,3-b]pyridin-2-yl}-N,N-dimethylbenzamide]
